Earlier results as cited in US6447754B1, “Oral rinse methods and compositions” (AkPharma Inc., priority 2000, dated 2002).

Details: in animals; ingestion

Substance: 1,2,3-propanetriol, mono(dihydrogen phosphate) calcium salt (1:1) [CGP]
- upper limit of CGP which can safely be ingested: greater than 5 grams of CGP per kilogram of body weight
